The values that follow come from PMC10056008 (Pharmaceuticals, 2023).

The conditions of data set [1]: cited from earlier work.
Data set [2] has as its system coagulation. The data set is described as follows: Coagulation assay (aPTT, PT, dPT, TT, fibrinogen) in plasma of dosed subjects. Format: in vivo, human. As for the experimental part:
An open-label, two-period, single sequence clinical study was conducted. After an overnight fast and drinking 200 mL of water one hour before drug administration, eligible subjects were administered with a capsule of dabigatran etexilate 150 mg ([…]®) on the first day of the study. Blood samples for pharmacokinetic and pharmacodynamic analyses were obtained using EDTA tubes and citrate tubes, respectively. […] Subjects remained at fasting stage until 4 h after the administration. […] To ensure compliance, subjects visited the study site for every drug administration. […] Blood samples were obtained at the same time point scheduled as the first day of the study. Adverse events were collected during the entire study period. This study was conducted in accordance with the Declaration of Helsinki, good clinical practice, and local regulation. The study was approved by the Institutional Review Board at Korea University Guro Hospital (2018GR0336, date of approval: 11 October 2018) and registered at ClinicalTrials.gov (NCT03728101). Anticoagulant assays of aPTT, PT, dPT, TT, and fibrinogen were measured using STA® Compact Max (Stago, Asnieres, France) according to the manufacturer's instructions. […] To measure aPTT, 50 μL of plasma sample was placed in a cuvette in the presence of STA®-PTT (50 μL) and 50 μL of 0.025 M CaCl2. For fibrinogen, 7.5 μL of plasma which was automatically diluted with Owren-Koller buffer was placed into a cuvette and then 50 μL of […] was added. For pharmacodynamic assessment, Phoenix Winnonlin® version 8.3 (Pharsight, Mountain View, CA, USA) was used to calculate AUEC with the linear trapezoidal method and Rmax was directly determined from individual profiles.

The test system of data set [3] is recombinant CES1A1. The settings on record: cited from earlier work.
Data set [4] has as its system thrombin generation. The data set is described as follows: Thrombin generation assay (TGA) in plasma of dosed subjects. It counts as in vivo, human. As for the experimental part: An open-label, two-period, single sequence clinical study was conducted. After an overnight fast and drinking 200 mL of water one hour before drug administration, eligible subjects were administered with a capsule of dabigatran etexilate 150 mg ([…]®) on the first day of the study. Blood samples for pharmacokinetic and pharmacodynamic analyses were obtained using EDTA tubes and citrate tubes, respectively. […] Subjects remained at fasting stage until 4 h after the administration. […] To ensure compliance, subjects visited the study site for every drug administration. […] Blood samples were obtained at the same time point scheduled as the first day of the study. Adverse events were collected during the entire study period. This study was conducted in accordance with the Declaration of Helsinki, good clinical practice, and local regulation. […] TGA was performed using a Technothrombin® TGA kit (Technoclone, Vienna, Austria) on a fully automated, computer-controlled microplate reader (Flexstation 3; Molecular Devices, San Jose, CA, USA) with a 360 nm excitation wavelength and 460 nm emission wavelength. In brief, 30 μL of plasma samples were mixed with 25 μL of 400 μmol/L fluorogenic substrate ([…]; Bachem, Bubendorf, Switzerland). The assay was initiated by dispensing 10 μL of 5 pmol/L recombinant human tissue factor lipidated with synthetic phospholipids and 10 μL of 15 mmol/L CaCl2. TGA results are expressed as Cmax, AUC, Tmax, and lag time. For pharmacodynamic assessment, Phoenix Winnonlin® version 8.3 (Pharsight, Mountain View, CA, USA) was used to calculate AUEC with the linear trapezoidal method and Rmax was directly determined from individual profiles.

The subject of data set [5] is CES1. Particulars: in vitro; cited from earlier work.
Setting [6] is: before dabigatran etexilate administration, period with simvastatin 40 mg once daily, mean (SD).
Where [7] appears, read: before vs after once daily simvastatin for 7 days.

`CCC(C)(C)C(=O)O[C@H]1C[C@@H](C)C=C2C=C[C@H](C)[C@H](CC[C@@H]3C[C@@H](O)CC(=O)O3)[C@H]21` [Simvastatin]: the elimination half-life entry in data set [1] was “about 2.8 h”. In addition, in data set [2] (setting [6]), the “Fibrinogen, baseline” value was 259.3 (39.4) mg/dL; the “PT (INR), baseline” value is given as 1.0 (0.1) INR; the “PT, baseline” value is listed as 13.7 (0.6) s; the “TT, baseline” value was 16.2 (0.9) s. In addition, in data set [2] (setting [6]), the “aPTT, baseline” value is 40.4 (3.3) s and the “dPT, baseline” value is listed as 43.2 (1.8) s. The “anticoagulant effect of simvastatin without dabigatran, coagulation assays” value in data set [2] (setting [7]) was “no significant difference”. Moreover, the “effect on imidapril hydrolase activity” value in data set [3] was “inhibitory effects”. In data set [4] (setting [6]), the “Thrombin Generation Assay AUC (endogenous thrombin potential), baseline” value was 4073.1 (642.2) nM∙min; the “Thrombin Generation Assay Tmax, baseline” value is recorded as 7.3 (0.8) min; the “Thrombin Generation Assay lag time, baseline” value is 3.5 (0.5) min. For the same compound, the “anticoagulant effect of simvastatin without dabigatran, thrombin generation” value in data set [4] (setting [7]) is on record as “no significant difference”. Moreover, the “effect on CES1-mediated hydrolysis of clopidogrel” value in data set [5] was “can inhibit”.
